According to patent publication US6737383B1, “Herbicidal oxadiazolidines” (priority 1999, dated 2004):

How the values were obtained:
duck salad = experiment: Test B flood test duck salad; assay type: in vivo, Heteranthera limosa
How it was run: (§1)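 Plants were grown to the 2-leaf stage before treatment with test chemical, then held in a greenhouse for twelve to sixteen days. Injury was visually rated against untreated controls on a 0–10 scale, where 0 is no effect and 10 is complete control.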

surinam grass = experiment: Test B pre/postemergence surinam grass; assay type: in vivo, Brachiaria decumbens
How it was run: (§2)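 Response is a visual 0-to-10 score relative to untreated plants, where 0 means no effect and 10 means complete control, taken twelve to sixteen days after application. Treatments went onto soil at planting and onto foliage of 1- to 4-leaf plants, using a surfactant-containing non-phytotoxic solvent.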

rape = experiment: Test B pre/postemergence rape; assay type: in vivo, Brassica napus
How it was run: as §2

bamyardgrass = experiment: Test B flood test barnyardgrass; assay type: in vivo, Echinochloa crus-galli
How it was run: as §1

cocklebur = experiment: Test B pre/postemergence cocklebur; assay type: in vivo, Xanthium strumarium
How it was run: as §2

smallflower flatsedge = experiment: Test B flood test smallflower flatsedge; assay type: in vivo, Cyperus difformis
How it was run: as §1

bedstraw = experiment: Test B pre/postemergence bedstraw; assay type: in vivo, Galium aparine
How it was run: as §2

morningglory = experiment: Test B pre/postemergence morningglory; assay type: in vivo, Ipomoea hederacea
How it was run: as §2

corn = experiment: Test B pre/postemergence corn; assay type: in vivo, Zea mays
How it was run: as §2

wild oat = experiment: Test B pre/postemergence wild oat; assay type: in vivo, Avena fatua
How it was run: as §2

sugar beet = experiment: Test B pre/postemergence sugar beet; assay type: in vivo, Beta vulgaris
How it was run: as §2

wheat = experiment: Test B pre/postemergence wheat; assay type: in vivo, Triticum aestivum
How it was run: as §2

giant foxtail = experiment: Test B pre/postemergence giant foxtail; assay type: in vivo, Setaria faberii
How it was run: as §2

pigweed = experiment: Test B pre/postemergence pigweed; assay type: in vivo, Amaranthus retroflexus
How it was run: as §2

crabgrass = experiment: Test B pre/postemergence crabgrass; assay type: in vivo, Digitaria sanguinalis
How it was run: as §2

velvetleaf = experiment: Test B pre/postemergence velvetleaf; assay type: in vivo, Abutilon theophrasti
How it was run: as §2

soybean = experiment: Test B pre/postemergence soybean; assay type: in vivo, Glycine max
How it was run: as §2

purple nutsedge = experiment: Test B pre/postemergence purple nutsedge; assay type: in vivo, Cyperus rotundus; conditions: Preemergence
How it was run: as §2

blackgrass = experiment: Test B pre/postemergence blackgrass; assay type: in vivo, Alopecurus myosuroides
How it was run: as §2

[1] = Rate 62 g/ha, flood test species, Pre-emergence, visual evaluation after twelve to sixteen days
[2] = Rate 125 g/ha, under heading Pre-emergence, flood test species, visual evaluation after twelve to sixteen days
[3] = Rate 250 g/ha, Pre-emergence (flood test species), scale 0 to 10, 0 is no effect, 10 is complete control
[4] = Rate 500 g/ha, Pre-emergence section of Table B, 0 to 10 scale (0 no effect, 10 complete control)
[5] = Postemergence, Rate 62 g/ha, scale of 0 to 10, 0 is no effect, 10 is complete control
[6] = Postemergence, Rate 125 g/ha, scale 0 to 10, 0 is no effect, 10 is complete control
[7] = Postemergence, Rate 500 g/ha, scale 0 to 10, 0 is no effect, 10 is complete control
[8] = Preemergence, Rate 62 g/ha, scale 0 to 10 (0 no effect, 10 complete control)
[9] = Preemergence, Rate 500 g/ha, scale of 0 to 10 where 0 is no effect and 10 is complete control
[10] = Rate 250 g/ha, Postemergence, scale of 0 to 10 where 0 is no effect and 10 is complete control
[11] = Preemergence, Rate 125 g/ha, scale 0 to 10, 0 is no effect, 10 is complete control

C=CCCCn1c(=O)on(C(=O)N(c2ccc(Cl)cc2)C(C)C)c1=O [Compound 546]
3: Wild oats plant response rating (wild oat; [9]) | Plant response rating, Redroot pigweed (pigweed; [7]) | Redroot pigweed plant response rating (pigweed; [11]) | Blackgrass plant response rating (blackgrass; [9]) | Plant response rating, Blackgrass (blackgrass; [10])
6: Plant response rating, Blackgrass (blackgrass; [7])
10: Plant response rating, Morningglory (morningglory; [7]) | Giant foxtail plant response rating (0 to 10 scale) (giant foxtail; Preemergence, Rate 250 g/ha) | Giant foxtail plant response rating (giant foxtail; [9]) | Redroot pigweed plant response rating (0 to 10 scale) (pigweed; Preemergence, Rate 250 g/ha) | Plant response rating, Crabgrass (crabgrass; [7]) | Crabgrass plant response rating (0 to 10 scale) (crabgrass; Preemergence, Rate 250 g/ha) | Crabgrass plant response rating (crabgrass; [9])
7: Plant response rating, Rape (rape; [7]) | Plant response rating, Rape (rape; [10]) | Plant response rating, Giant foxtail (giant foxtail; [7]) | Crabgrass plant response rating (crabgrass; [6]) | Crabgrass plant response rating (crabgrass; [8]) | Crabgrass plant response rating (crabgrass; [11]) | Plant response rating, Crabgrass (crabgrass; [10])
9: Bedstraw plant response rating (bedstraw; [6]) | Plant response rating, Bedstraw (bedstraw; [7]) | Plant response rating, Bedstraw (bedstraw; [10])
2: B. signalgrass plant response rating (surinam grass; [9]) | Plant response rating, Wild oats (wild oat; [7]) | Sugarbeets plant response rating (0 to 10 scale) (sugar beet; Preemergence, Rate 250 g/ha) | Sugarbeets plant response rating (sugar beet; [9]) | Plant response rating, Velvetleaf (velvetleaf; [7]) | Velvetleaf plant response rating (velvetleaf; [9]) | Plant response rating, Soybean (soybean; [10])
0: Plant response rating, Ducksalad (0 to 10 scale, 0 is no effect, 10 is complete control) (duck salad; [1]) | Ducksalad plant response rating (0 to 10 scale, 0 is no effect, 10 is complete control) (duck salad; [2]) | Ducksalad plant response rating (duck salad; [3]) | Ducksalad plant response rating (duck salad; [4]) | B. signalgrass plant response rating (surinam grass; [5]) | B. signalgrass plant response rating (surinam grass; [6]) | Plant response rating, B. signalgrass (surinam grass; [7]) | B. signalgrass plant response rating (surinam grass; [8]) | B. signalgrass plant response rating (0 to 10 scale, 0 is no effect, 10 is complete control) (surinam grass; Preemergence, Rate 250 g/ha) | Plant response rating, B. signalgrass (surinam grass; [10]) | Rape plant response rating (rape; [5]) | Rape plant response rating (rape; [6]) | Rape plant response rating (rape; [8]) | Rape plant response rating (rape; [11]) | Rape plant response rating (0 to 10 scale) (rape; Preemergence, Rate 250 g/ha) | Rape plant response rating (rape; [9]) | Plant response rating, Barnyardgrass (0 to 10 scale, 0 is no effect, 10 is complete control) (bamyardgrass; [1]) | Barnyardgrass plant response rating (0 to 10 scale, 0 is no effect, 10 is complete control) (bamyardgrass; [2]) | Barnyardgrass plant response rating (bamyardgrass; [3]) | Barnyardgrass plant response rating (bamyardgrass; [4]) | Cocklebur plant response rating (cocklebur; [5]) | Cocklebur plant response rating (cocklebur; [6]) | Plant response rating, Cocklebur (cocklebur; [7]) | Cocklebur plant response rating (cocklebur; [8]) | Cocklebur plant response rating (cocklebur; [11]) | Cocklebur plant response rating (0 to 10 scale) (cocklebur; Preemergence, Rate 250 g/ha) | Cocklebur plant response rating (cocklebur; [9]) | Plant response rating, Cocklebur (cocklebur; [10]) | Plant response rating, S. Flatsedge (0 to 10 scale, 0 is no effect, 10 is complete control) (smallflower flatsedge; [1]) | S. Flatsedge plant response rating (0 to 10 scale, 0 is no effect, 10 is complete control) (smallflower flatsedge; [2]) | S. Flatsedge plant response rating (smallflower flatsedge; [3]) | S. Flatsedge plant response rating (smallflower flatsedge; [4]) | Bedstraw plant response rating (bedstraw; [5]) | Bedstraw plant response rating (bedstraw; [8]) | Morningglory plant response rating (morningglory; [5]) | Morningglory plant response rating (morningglory; [8]) | Morningglory plant response rating (morningglory; [11]) | Morningglory plant response rating (0 to 10 scale) (morningglory; Preemergence, Rate 250 g/ha) | Morningglory plant response rating (morningglory; [9]) | Corn plant response rating (corn; [5]) | Corn plant response rating (corn; [6]) | Plant response rating, Corn (corn; [7]) | Corn plant response rating (corn; [8]) | Corn plant response rating (corn; [11]) | Corn plant response rating (0 to 10 scale) (corn; Preemergence, Rate 250 g/ha) | Corn plant response rating (corn; [9]) | Plant response rating, Corn (corn; [10]) | Wild oats plant response rating (wild oat; [5]) | Wild oats plant response rating (wild oat; [6]) | Wild oats plant response rating (wild oat; [8]) | Wild oats plant response rating (wild oat; [11]) | Wild oats plant response rating (0 to 10 scale) (wild oat; Preemergence, Rate 250 g/ha) | Plant response rating, Wild oats (wild oat; [10]) | Sugarbeets plant response rating (sugar beet; [5]) | Sugarbeets plant response rating (sugar beet; [6]) | Sugarbeets plant response rating (sugar beet; [8]) | Sugarbeets plant response rating (sugar beet; [11]) | Wheat plant response rating (wheat; [5]) | Wheat plant response rating (wheat; [6]) | Plant response rating, Wheat (wheat; [7]) | Wheat plant response rating (wheat; [8]) | Wheat plant response rating (wheat; [11]) | Wheat plant response rating (0 to 10 scale) (wheat; Preemergence, Rate 250 g/ha) | Wheat plant response rating (wheat; [9]) | Plant response rating, Wheat (wheat; [10]) | Giant foxtail plant response rating (giant foxtail; [5]) | Redroot pigweed plant response rating (pigweed; [5]) | Plant response rating, Redroot pigweed (pigweed; [10]) | Velvetleaf plant response rating (velvetleaf; [5]) | Velvetleaf plant response rating (velvetleaf; [6]) | Velvetleaf plant response rating (velvetleaf; [8]) | Velvetleaf plant response rating (velvetleaf; [11]) | Velvetleaf plant response rating (0 to 10 scale) (velvetleaf; Preemergence, Rate 250 g/ha) | Soybean plant response rating (soybean; [8]) | Soybean plant response rating (soybean; [11]) | Soybean plant response rating (0 to 10 scale) (soybean; Preemergence, Rate 250 g/ha) | Soybean plant response rating (soybean; [9]) | Nutsedge plant response rating (purple nutsedge; Rate 62 g/ha, scale 0 to 10 (0 no effect, 10 complete control)) | Nutsedge plant response rating (purple nutsedge; Rate 125 g/ha, scale 0 to 10, 0 is no effect, 10 is complete control) | Nutsedge plant response rating (0 to 10 scale) (purple nutsedge; Rate 250 g/ha) | Nutsedge plant response rating (purple nutsedge; Rate 500 g/ha, scale of 0 to 10 where 0 is no effect and 10 is complete control) | Blackgrass plant response rating (blackgrass; [5]) | Blackgrass plant response rating (blackgrass; [6]) | Blackgrass plant response rating (blackgrass; [8]) | Blackgrass plant response rating (blackgrass; [11]) | Blackgrass plant response rating (0 to 10 scale) (blackgrass; Preemergence, Rate 250 g/ha)
4: Morningglory plant response rating (morningglory; [6]) | Plant response rating, Sugarbeets (sugar beet; [10]) | Giant foxtail plant response rating (giant foxtail; [11]) | Plant response rating, Giant foxtail (giant foxtail; [10]) | Plant response rating, Soybean (soybean; [7])
1: Crabgrass plant response rating (crabgrass; [5]) | Soybean plant response rating (soybean; [5]) | Soybean plant response rating (soybean; [6])
8: Bedstraw plant response rating (0 to 10 scale) (bedstraw; Preemergence, Rate 250 g/ha)
5: Plant response rating, Morningglory (morningglory; [10]) | Plant response rating, Sugarbeets (sugar beet; [7])
